ChEMBL document CHEMBL1201862, “PubChem BioAssay data set” (2004)
Active and inactive are the calls of the source.

Key:
[1] = A cytotoxicity screen of small molecule inhibitors of the PhoP region in Salmonella typhi identified in the primary screen. [Related pubchem assays: 1850, 1864, 1985 ]; type: functional
[2] = target: T1, Short transient receptor potential channel 4 (Mus musculus, UniProt Q9QUQ5); experiment: calcium entry via TRPC4 opening agents – cell-based, HEK293 TRPC4/mu-opioid, Fluo-4 calcium, dose response (AID 434937); type: functional
T1 sequence (Q9QUQ5 whole entry): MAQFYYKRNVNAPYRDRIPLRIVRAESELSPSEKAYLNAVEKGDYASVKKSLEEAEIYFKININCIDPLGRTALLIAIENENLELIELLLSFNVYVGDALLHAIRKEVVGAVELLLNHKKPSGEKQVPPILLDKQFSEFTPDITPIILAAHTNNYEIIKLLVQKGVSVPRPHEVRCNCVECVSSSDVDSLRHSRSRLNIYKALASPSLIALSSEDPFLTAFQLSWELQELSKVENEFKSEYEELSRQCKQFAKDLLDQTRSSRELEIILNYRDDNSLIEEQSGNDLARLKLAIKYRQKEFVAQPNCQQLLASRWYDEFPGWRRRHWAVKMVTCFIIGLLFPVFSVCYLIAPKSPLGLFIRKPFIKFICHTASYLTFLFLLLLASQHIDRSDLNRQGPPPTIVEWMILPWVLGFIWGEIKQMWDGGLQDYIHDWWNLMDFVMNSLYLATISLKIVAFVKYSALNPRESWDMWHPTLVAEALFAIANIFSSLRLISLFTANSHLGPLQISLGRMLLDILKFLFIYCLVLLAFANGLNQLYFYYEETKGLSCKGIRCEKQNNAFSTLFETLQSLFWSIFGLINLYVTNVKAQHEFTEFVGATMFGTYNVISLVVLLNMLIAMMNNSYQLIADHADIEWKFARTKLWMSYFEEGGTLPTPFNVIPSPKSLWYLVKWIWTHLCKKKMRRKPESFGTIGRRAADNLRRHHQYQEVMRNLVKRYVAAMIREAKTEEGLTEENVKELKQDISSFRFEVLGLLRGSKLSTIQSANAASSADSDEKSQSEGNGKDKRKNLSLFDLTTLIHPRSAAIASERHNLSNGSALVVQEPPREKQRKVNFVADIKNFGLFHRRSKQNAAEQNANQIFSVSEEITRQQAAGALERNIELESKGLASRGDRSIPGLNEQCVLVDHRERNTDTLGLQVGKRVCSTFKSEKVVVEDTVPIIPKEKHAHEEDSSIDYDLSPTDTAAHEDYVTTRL

[3] = luciferase reporter signal suppression in cells – H4 neuroglioma cells, luminescence, dose response (AID 1990); type: functional, cell-based
[4] = luciferase reporter signal reduction – luminescence, H4-C neuroglioblastoma cells, dose response (AID 2458); type: functional, cell-based;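 note: H4 neuroglioblastoma cells stably carrying a luciferase reporter gene fusion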
[5] = cells; type: functional, cell-based
[6] = Luminescence Cell-Based Dose Response HTS to Identify Inhibitors of 5'UTR Stem-Loop Driven Prion Protein mRNA Translation in H4 Neuroglioblastoma Cells. [Related pubchem assays: 1827 (Project Summary), 1813 (Primary HTS)]; type: functional
[7] = target: T2, Heat shock factor protein 1 (Mus musculus, UniProt P38532); experiment: decrease of HSF1-responsive luciferase luminescence – cell-based, NIH3T3, dose retest, confirmation (AID 2382); type: functional;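 note: NIH3T3 fibroblasts with HSF1-driven luciferase reporter stressed by proteasome inhibitor MG132; luminescence from HSF1-driven luciferase expression after 8 hours of MG132 stress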
T2 sequence (P38532 whole entry): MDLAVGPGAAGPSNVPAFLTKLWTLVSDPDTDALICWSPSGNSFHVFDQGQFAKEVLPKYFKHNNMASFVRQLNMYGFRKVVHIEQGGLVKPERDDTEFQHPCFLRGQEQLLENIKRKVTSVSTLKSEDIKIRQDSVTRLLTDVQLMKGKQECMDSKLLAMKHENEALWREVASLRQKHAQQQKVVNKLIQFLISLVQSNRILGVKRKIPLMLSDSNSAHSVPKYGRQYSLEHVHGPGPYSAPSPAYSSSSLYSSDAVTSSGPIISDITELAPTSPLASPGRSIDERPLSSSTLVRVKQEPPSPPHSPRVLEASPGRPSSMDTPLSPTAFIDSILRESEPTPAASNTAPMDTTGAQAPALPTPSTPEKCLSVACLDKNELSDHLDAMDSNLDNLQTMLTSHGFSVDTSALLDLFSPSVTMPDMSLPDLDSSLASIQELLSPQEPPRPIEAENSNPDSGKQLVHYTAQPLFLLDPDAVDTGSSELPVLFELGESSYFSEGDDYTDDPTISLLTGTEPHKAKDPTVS

[8] = alpha-synuclein stem-loop luciferase translation blockers – H4 neuroglioma cells, luminescence, confirmation (AID 1988); type: functional, cell-based
[9] = Luminescence-based counterscreen assay for KLF5 inhibitors: dose response cell-based high throughput screening assay to identify cytotoxic compounds using the IEC-6 intestinal epithelial cell line. [Related pubchem assays: 1700 (Primary screen.), 1834 (Confirmation screen.), 1858 (Summary AID.), 1905 (Counterscreen.)]; type: functional
[10] = alpha-synuclein stem-loop translation blockers – luminescence, H4 neuroglioblastoma cells, dose confirmation, confirmation (AID 2454); type: functional, cell-based;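 note: H4 neuroglioblastoma cells carrying an alpha-synuclein 5'UTR luciferase reporter; potency for inhibition of the luciferase signal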
[11] = toxicity toward HepG2 liver cells – cell-based, plate reader, cherry-pick, antagonist series, cytotoxicity control, dose response (AID 743416); type: functional
[12] = blockers of bursicon-stimulated LGR2 cAMP reporter – cell-based, HEK293, CRE-luciferase reporter, cherry pick, set 2, dose response (AID 743343); type: functional;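 note: transfected cells were stimulated with diluted bursicon conditioned medium after compound addition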
[13] = blockade of melanocortin 4 receptor signaling – cell-based, plate reader, cherry pick, counter-screen for LGR2 antagonist project, dose response (AID 743444); type: functional;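 note: transfected HEK 293 cells stimulated with alpha-MSH peptide; potency of inhibitors of the alpha-MSH evoked signal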
[14] = viability loss in HEK293 cells – cell-based, plate reader, cherry-picked samples, cytotoxicity control, dose response (AID 743446); type: functional
[15] = target: Luciferin 4-monooxygenase (Photinus pyralis, UniProt P08659); experiment: Counter Screen for Luciferase-based Assay Positives. [Related pubchem assays: 620, 618, 411 ]
Chain of Luciferin 4-monooxygenase (P08659 whole entry): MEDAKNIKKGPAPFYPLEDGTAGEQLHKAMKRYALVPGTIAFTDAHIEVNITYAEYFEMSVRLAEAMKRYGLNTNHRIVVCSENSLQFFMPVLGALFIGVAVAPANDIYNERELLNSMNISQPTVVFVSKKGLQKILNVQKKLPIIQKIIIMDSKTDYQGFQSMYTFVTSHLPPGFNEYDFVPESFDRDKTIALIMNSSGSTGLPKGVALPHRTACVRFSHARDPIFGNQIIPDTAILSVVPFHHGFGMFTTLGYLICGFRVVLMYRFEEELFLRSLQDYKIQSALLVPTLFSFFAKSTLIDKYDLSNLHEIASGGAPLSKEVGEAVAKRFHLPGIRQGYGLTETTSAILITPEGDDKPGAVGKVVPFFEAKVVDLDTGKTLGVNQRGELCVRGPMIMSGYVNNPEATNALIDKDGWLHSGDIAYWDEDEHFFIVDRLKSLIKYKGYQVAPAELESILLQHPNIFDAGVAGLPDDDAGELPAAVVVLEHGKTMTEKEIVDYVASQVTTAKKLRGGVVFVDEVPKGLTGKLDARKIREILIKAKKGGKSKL

[16] = system: HT-1080; experiment: HT1080 cell viability loss – fluorescence readout (AID 620); type: functional, cell-based; settings: Homo sapiens
[17] = target: T3, Estrogen receptor (Homo sapiens, UniProt P03372); experiment: ERα coactivator recruitment enhancers – biochemical, TR-FRET, ERα LBD, dose response (AID 737)
T3 sequence (P03372 whole entry): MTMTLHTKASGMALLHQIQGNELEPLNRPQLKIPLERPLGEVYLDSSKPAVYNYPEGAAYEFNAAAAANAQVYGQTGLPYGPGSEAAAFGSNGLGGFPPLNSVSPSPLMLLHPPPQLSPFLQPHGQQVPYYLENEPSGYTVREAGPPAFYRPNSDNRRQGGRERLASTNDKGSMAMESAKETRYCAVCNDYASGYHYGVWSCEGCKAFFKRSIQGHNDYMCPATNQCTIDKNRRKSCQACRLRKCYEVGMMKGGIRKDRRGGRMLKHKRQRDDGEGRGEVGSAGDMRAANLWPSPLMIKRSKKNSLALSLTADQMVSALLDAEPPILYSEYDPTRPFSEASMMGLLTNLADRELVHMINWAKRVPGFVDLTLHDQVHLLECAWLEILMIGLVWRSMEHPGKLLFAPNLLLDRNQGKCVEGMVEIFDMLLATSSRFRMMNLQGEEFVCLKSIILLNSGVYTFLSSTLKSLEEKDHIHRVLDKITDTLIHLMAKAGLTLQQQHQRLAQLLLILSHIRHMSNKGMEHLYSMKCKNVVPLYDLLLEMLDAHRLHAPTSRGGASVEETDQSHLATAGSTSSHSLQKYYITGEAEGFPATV

[18] = viability of uninfected HEp-2 cells – cell-based, HTS, cytotoxicity control for RSV inhibitor project, dose response (AID 2410); type: functional; settings: human respiratory syncytial virus
[19] = cells; type: functional
[20] = target: Cytochrome P450 2C19 (Homo sapiens, UniProt P33261); experiment: Cytochrome panel assay with activity outcomes. Panel member name: p450-cyp2c19 Compounds with AC50 equal or less than 10 uM are considered active; type: functional; settings: read-out: AC50
Chain of Cytochrome P450 2C19 (P33261 whole entry): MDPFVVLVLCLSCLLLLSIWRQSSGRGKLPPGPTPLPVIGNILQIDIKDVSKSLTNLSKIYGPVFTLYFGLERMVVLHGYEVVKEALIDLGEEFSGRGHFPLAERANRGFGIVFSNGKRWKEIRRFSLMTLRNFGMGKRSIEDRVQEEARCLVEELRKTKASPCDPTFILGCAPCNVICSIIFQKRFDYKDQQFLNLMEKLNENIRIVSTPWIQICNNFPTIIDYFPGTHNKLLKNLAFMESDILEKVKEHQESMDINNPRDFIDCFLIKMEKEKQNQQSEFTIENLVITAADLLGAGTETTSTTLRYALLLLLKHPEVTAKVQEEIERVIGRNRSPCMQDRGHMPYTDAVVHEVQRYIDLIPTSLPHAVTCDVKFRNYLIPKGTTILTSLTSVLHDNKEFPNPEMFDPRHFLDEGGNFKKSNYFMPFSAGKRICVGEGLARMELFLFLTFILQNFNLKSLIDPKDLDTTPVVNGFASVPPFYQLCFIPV

[21] = target: Cytochrome P450 2C9 (Homo sapiens, UniProt P11712)
Chain of Cytochrome P450 2C9 (P11712 whole entry): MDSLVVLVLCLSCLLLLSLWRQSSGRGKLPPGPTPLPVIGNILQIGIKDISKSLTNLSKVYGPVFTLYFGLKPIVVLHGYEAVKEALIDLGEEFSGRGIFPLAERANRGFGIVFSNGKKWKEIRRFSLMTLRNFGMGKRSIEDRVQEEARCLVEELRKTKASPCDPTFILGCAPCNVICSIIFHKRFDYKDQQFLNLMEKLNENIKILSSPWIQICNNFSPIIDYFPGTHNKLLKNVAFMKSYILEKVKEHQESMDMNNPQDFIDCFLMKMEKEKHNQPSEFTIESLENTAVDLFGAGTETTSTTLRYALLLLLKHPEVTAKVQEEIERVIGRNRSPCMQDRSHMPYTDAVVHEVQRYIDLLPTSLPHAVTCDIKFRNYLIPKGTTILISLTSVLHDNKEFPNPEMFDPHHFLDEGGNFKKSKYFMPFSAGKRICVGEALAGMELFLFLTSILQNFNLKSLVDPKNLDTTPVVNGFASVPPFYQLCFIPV

[22] = cells
[23] = system: HEK293; experiment: Fluorescence-based counterscreen for potentiators or agonists of NPY-Y2: cell-based high-throughput dose response assay to identify inhibitors of cyclic nucleotide gated ion channel (CNGC) activity. In this assay, the parental HEK293 cell line transfected with a cyclic-nucleotide gated ion channel (CNGC)-based cAMP sensor is used to measure inhibition of isoproterenol-induced CNGC activity by test compound.; type: functional; settings: Homo sapiens;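 note: stimulus is 1 µM isoproterenol at EC100 plus PDE inhibitor Ro 20-1724 at 25 µM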
[24] = target: T4, Neuropeptide Y receptor type 2 (Homo sapiens, UniProt P49146); experiment: Fluorescence-based cell-based high-throughput dose response assay for agonists of NPY-Y2. [Related pubchem assays: 1703 (Screening assay (CNGC inhibitors).), 1359 (Screening assay (NPY-Y2 potentiators or agonists).), 1304 (Screening assay (NPY-Y1 potentiators or agonists).), 1710 (Screening assay (NPY-Y2 agonists).), 1791 (Summary AID.)]; type: functional
T4 sequence (P49146 whole entry): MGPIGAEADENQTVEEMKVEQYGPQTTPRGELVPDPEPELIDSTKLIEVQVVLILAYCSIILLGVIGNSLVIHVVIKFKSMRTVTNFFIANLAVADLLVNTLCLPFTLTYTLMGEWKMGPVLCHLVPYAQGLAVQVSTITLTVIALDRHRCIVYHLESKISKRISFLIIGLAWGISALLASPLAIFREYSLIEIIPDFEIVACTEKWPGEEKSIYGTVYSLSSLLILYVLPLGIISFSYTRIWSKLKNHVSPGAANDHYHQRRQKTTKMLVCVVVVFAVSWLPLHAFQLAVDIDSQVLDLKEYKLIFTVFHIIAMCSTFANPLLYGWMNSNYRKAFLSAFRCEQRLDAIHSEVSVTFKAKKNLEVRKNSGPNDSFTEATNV

[25] = target: T5, Neuropeptide Y receptor type 1 (Homo sapiens, UniProt P25929); experiment: Fluorescence-based counterscreen for agonists of NPY-Y2: cell-based high-throughput dose response assay for agonists of NPY-Y1.; type: functional
T5 sequence (P25929 whole entry): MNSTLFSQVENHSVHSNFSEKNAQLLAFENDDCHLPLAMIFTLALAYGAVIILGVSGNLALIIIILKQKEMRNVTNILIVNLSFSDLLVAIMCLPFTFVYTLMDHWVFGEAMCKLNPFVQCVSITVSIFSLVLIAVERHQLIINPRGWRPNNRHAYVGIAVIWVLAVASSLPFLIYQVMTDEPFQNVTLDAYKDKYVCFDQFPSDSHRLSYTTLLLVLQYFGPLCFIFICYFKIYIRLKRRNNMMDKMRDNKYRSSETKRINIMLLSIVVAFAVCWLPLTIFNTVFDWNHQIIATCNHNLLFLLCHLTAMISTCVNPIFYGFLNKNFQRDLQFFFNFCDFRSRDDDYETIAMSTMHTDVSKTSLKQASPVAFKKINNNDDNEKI

CN(CCOc1ccc(Cl)cc1)CC(O)c1ccccc1 (stereo not drawn)
EC50 [1]: > 50 µM (active) | EC50 [2]: 1.88 µM (active)

CCc1ccn2cc(-c3cc(-c4ccccc4)no3)nc2c1
EC50 [3]: 0.207 µM (active) | EC50 [4]: 1.2 µM (active) | EC50 [5]: > 12 µM (inconclusive) | EC50 [6]: < 0.1 µM (active) | EC50 [7]: < 0.16 µM (active) | EC50 [8]: 0.13 µM (active) | IC50 [9]: > 39.8 µM (not active) | EC50 [10]: 1.12 µM (active) | AC50 [11]: 25.4 µM (active) | AC50 [12]: 0.805 µM (active) | AC50 [13]: 0.701 µM (active) | AC50 [14]: > 52 µM (inactive)

COCCn1c(C)cc(C2=NN=C(Nc3ccccc3)SC2)c1C
EC50 [15]: 2.49 µM (active) | EC50 [16]: > 50 µM (not active)

COc1cc(NC(=O)c2cccs2)c(C(=O)OCC(=O)NC(=O)NCc2ccccc2)cc1OC
EC50 [17]: 1.58 µM (active)

COc1cc(SC)ccc1C(=O)Nc1ccc2c(c1)OCCO2
CC50 [18]: 19.9 µM (active) | EC50 [15]: 75.4 µM (active) | EC50 [16]: > 50 µM (not active)

CC(=O)/C=C1\Nc2ccccc2OC1=O
EC50 [1]: > 50 µM (active) | IC50 [19]: 5.75 µM (active) | AC50 [20]: 7.94 µM (inconclusive) | AC50 [21]: 2.24 µM (inconclusive)

O=C(CCn1c(=O)c2sccc2n(Cc2cc(=O)n3ccccc3n2)c1=O)NCc1ccco1
IC50 [22]: 24.4 µM (active)

OC1(c2ccc(OC(F)F)cc2)CS/C(=N\c2cccnc2)N1Cc1ccco1 (stereo not drawn)
EC50 [23]: > 35.4 µM (not active) | EC50 [24]: > 35.4 µM (not active) | EC50 [25]: > 35.4 µM (not active)
